Experimental data reported in patent publication US20260035403A1, “NUCLEOSIDE LINE-1 INHIBITORS” (TRANSPOSON THERAPEUTICS, INC., priority 2022, published 2026).

Test system: human LINE-1
Test: Human LINE-1 retrotransposition assay (HeLa cell-based dual-luciferase reporter)
Settings: Homo sapiens, HeLa, 72 h, Human LINE-1 activity inhibition; HeLa cells, reporter plasmid pYX017, Firefly/Renilla, 72 h incubation
Outline: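 HeLa cells transfected with pYX017 dual-luciferase L1 reporter and treated with serially diluted compound (0.2% DMSO final) for 72 h at 37° C. Relative L1 activity as Firefly/Renilla ratio; IC50 from four-parameter logistic fit.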

SMILES	IC50
C#C[C@]1(CO)OC(n2cc(C)c(N)nc2=O)C[C@@H]1O (stereo partly drawn) [compound 46, 4-amino-1-((4S,5R)-5-ethynyl-4-hydroxy-5-(hydroxymethyl)tetrahydrofuran-2-yl)-5-methylpyrimidin-2(1H)-one]	> 50 µM
N#C[C@]1(CO)O[C@@H](n2cc(Cl)c(N)nc2=O)C[C@@H]1O [compound 164, (2R,3S,5R)-5-(4-amino-5-chloro-2-oxopyrimidin-1(2H)-yl)-3-hydroxy-2-(hydroxymethyl)tetrahydrofuran-2-carbonitrile]	> 50 µM
Cc1cn([C@@H]2C[C@@H](O)[C@H](CO)O2)c(=O)[nH]c1=O [compound 95, 1-((2S,4R,5S)-4-hydroxy-5-(hydroxymethyl)tetrahydrofuran-2-yl)-5-methylpyrimidine-2,4(1H,3H)-dione]	> 50 µM
C#C[C@@]1(CO)C=C[C@H](n2cnc3c(OC)nc(Cl)nc32)O1 [compound 41, ((2R,5R)-5-(2-chloro-6-methoxy-9H-purin-9-yl)-2-ethynyl-2,5-dihydrofuran-2-yl)methanol]	> 50 µM
C#C[C@]1(CO)OC(n2cc(C#N)c(=O)[nH]c2=O)C[C@@H]1O (stereo partly drawn) [compound 58, 1-((4S,5R)-5-ethynyl-4-hydroxy-5-(hydroxymethyl)tetrahydrofuran-2-yl)-2,4-dioxo-1,2,3,4-tetrahydropyrimidine-5-carbonitrile]	> 50 µM
CC[C@]1(CO)O[C@@H](n2cc(Br)c(N)nc2=O)C[C@@H]1O [compound 105, 4-amino-5-bromo-1-((2R,4S,5R)-5-ethyl-4-hydroxy-5-(hydroxymethyl)tetrahydrofuran-2-yl)pyrimidin-2(1H)-one]	0.15 µM
CC[C@]1(CO)O[C@@H](n2cc(Br)c(=O)[nH]c2=O)C[C@@H]1O [Cpd. No. 2, 5-bromo-1-((2R,4S,5R)-5-ethyl-4-hydroxy-5-(hydroxymethyl)tetrahydrofuran-2-yl)-4-hydroxypyrimidin-2(1H)-one]	6.9 µM
C=C[C@]1(CO)O[C@H](n2cc(C#N)c(=O)[nH]c2=O)C[C@@H]1O [compound 7, 1-((2S,4S,5R)-4-hydroxy-5-(hydroxymethyl)-5-vinyltetrahydrofuran-2-yl)-2,4-dioxo-1,2,3,4-tetrahydropyrimidine-5-carbonitrile]	0.89 µM

Other lines, results leading:

IC50	SMILES
> 12.5 µM	C=C[C@]1(CO)O[C@H](n2cc(C)c(=O)[nH]c2=O)C[C@@H]1O [compound 63, 1-((2S,4S,5R)-4-hydroxy-5-(hydroxymethyl)-5-vinyltetrahydrofuran-2-yl)-5-methylpyrimidine-2,4(1H,3H)-dione]
0.004 µM	C=C[C@]1(CO)OC(n2cc(Br)c(N)nc2=O)C[C@@H]1O (stereo partly drawn) [compound 67, 4-amino-5-bromo-1-((4S,5R)-4-hydroxy-5-(hydroxymethyl)-5-vinyltetrahydrofuran-2-yl)pyrimidin-2(1H)-one]
0.009 µM	C=C[C@]1(CO)O[C@@H](n2cc(F)c(N)nc2=O)C[C@@H]1O [Cpd. No. 8, 4-amino-5-fluoro-1-((2R,4S,5R)-4-hydroxy-5-(hydroxymethyl)-5-vinyltetrahydrofuran-2-yl)pyrimidin-2(1H)-one]
0.469 µM	C=C[C@]1(CO)O[C@@H](n2cnc3c(NC4CC4)nc(F)nc32)C[C@@H]1O [Cpd. No. 5, (2R,3S,5R)-5-(6-(cyclopropylamino)-2-fluoro-9H-purin-9-yl)-2-(hydroxymethyl)-2-vinyltetrahydrofuran-3-ol]
> 50 µM	C=C[C@]1(CO)O[C@@H](n2cc(C)c(=O)[nH]c2=O)C[C@H]1O [compound 25, 1-((2R,4R,5R)-4-hydroxy-5-(hydroxymethyl)-5-vinyltetrahydrofuran-2-yl)-5-methylpyrimidine-2,4(1H,3H)-dione]

Same assay, conditions: Human LINE-1 activity inhibition; HeLa cells, reporter plasmid pYX017, Firefly/Renilla, 72 h incubation

SMILES	IC50
CC[C@]1(CO)O[C@@H](n2cnc3c(N)nc(Cl)nc32)[C@@H](F)[C@@H]1O [compound 182, (2R,3R,4S,5R)-5-(6-amino-2-chloro-9H-purin-9-yl)-2-ethyl-4-fluoro-2-(hydroxymethyl)tetrahydrofuran-3-ol]	293 µM
